We go through 21 compounds from US9796711B2, “Substituted pyrazolo[3,4-b]pyridin-6-carboxylic acids and method of use” (AbbVie S.àr.l., priority 2015, dated 2017).

Assay [1] deals with T1, ΔF508-CFTR (Homo sapiens, UniProt P13569, DEL508-508).
T1 construct: host or cells: CFBE41o-, doxycycline-inducible
The assay is described as follows: CFTR cell surface levels using HRP-tagged ΔF508-CFTR expressing CFBE cells, in the presence of a co-corrector. The assay is classed as cell-based. As to conditions: HRP-tagged ΔF508-CFTR expressing CFBE cells, in the presence of 3 μM co-corrector; for EC50: read-out: EC50. Summed up:
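Cells were seeded with 0.5 μg/mL doxycycline and held 68 h at 37 °C. Test compounds plus 3 μM co-corrector (final 0.1% DMSO) were then added for 20 h at 33 °C. Washed cells received HRP substrate, and luminescence was normalized between DMSO and 3 μM co-corrector controls.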

Assay [2] has as its target T1, ΔF508-CFTR. Kind of assay: CFTR cell surface levels using HRP-tagged ΔF508-CFTR expressing CFBE cells, intrinsic corrector capacity. To be noted: for EC50: read-out: EC50. The assay is classed as cell-based. Summed up:
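Here the cells express ΔF508-CFTR with horseradish peroxidase inserted in extracellular loop 4, so only rescued channel at the surface gives luminescent signal. Compounds act on their own, 20 h at the reduced temperature of 33 °C; values are percent activity relative to DMSO and a 3 μM corrector.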

[3] abbreviates: HRP-tagged ΔF508-CFTR expressing CFBE cells, intrinsic corrector capacity (no co-corrector), 33° C., 20 hours.
[4] abbreviates: HRP-tagged ΔF508-CFTR CFBE41o- cells, compounds alone (intrinsic corrector capacity), 20 hours at 33° C., positive control 3 μM corrector.
[5] abbreviates: HRP-tagged ΔF508-CFTR CFBE41o- cells, compounds alone (intrinsic corrector capacity), 20 hours at 33° C.

T1 sequence (P13569 with tags, fused parts or gaps DEL508-508): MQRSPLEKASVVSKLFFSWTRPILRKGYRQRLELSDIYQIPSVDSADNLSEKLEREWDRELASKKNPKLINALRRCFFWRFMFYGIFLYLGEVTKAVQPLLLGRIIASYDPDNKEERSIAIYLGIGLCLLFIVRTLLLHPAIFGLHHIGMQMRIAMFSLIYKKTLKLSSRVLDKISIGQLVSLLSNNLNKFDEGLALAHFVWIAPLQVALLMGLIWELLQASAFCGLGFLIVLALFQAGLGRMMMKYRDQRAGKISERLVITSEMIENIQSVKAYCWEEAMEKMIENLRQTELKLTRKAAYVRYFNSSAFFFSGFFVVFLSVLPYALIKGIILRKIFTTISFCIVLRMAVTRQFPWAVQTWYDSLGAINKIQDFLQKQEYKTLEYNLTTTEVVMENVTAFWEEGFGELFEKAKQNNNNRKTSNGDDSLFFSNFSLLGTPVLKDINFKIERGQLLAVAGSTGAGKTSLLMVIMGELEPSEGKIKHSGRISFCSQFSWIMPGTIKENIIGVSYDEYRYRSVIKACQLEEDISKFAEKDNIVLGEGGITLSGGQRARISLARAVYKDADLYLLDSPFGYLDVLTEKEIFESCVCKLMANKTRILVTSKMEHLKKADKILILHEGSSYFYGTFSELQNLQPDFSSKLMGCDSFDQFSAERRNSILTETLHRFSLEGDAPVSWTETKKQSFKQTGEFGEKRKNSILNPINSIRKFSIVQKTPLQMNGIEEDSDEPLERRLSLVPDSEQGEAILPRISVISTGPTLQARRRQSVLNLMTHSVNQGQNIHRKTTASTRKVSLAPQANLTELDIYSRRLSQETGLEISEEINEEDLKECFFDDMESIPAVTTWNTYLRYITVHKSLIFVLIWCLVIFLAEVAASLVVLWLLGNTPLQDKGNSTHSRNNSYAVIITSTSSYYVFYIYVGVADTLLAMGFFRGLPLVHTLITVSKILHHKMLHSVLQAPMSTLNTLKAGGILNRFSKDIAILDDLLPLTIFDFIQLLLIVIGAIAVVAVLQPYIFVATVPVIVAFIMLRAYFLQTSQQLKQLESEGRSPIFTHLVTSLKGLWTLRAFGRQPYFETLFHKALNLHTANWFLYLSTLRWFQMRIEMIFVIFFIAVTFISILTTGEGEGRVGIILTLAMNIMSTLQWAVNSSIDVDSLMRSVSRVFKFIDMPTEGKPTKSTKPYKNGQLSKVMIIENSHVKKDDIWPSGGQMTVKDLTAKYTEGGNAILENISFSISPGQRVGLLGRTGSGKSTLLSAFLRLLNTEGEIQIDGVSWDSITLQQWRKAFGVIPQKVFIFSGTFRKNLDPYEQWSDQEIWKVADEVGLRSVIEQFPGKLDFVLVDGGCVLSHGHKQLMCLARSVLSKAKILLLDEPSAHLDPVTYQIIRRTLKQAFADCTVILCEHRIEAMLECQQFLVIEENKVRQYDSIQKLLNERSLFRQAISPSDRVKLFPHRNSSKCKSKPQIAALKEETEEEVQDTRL

On to `CCN(CC)C1CCN(c2cc(C(=O)O)nc3c2c(C(C)C)nn3-c2ccc(F)cc2)CC1` [compound 787, 4-[4-(diethylamino)piperidin-1-yl]-1-(4-fluorophenyl)-3-(propan-2-yl)-1H-pyrazolo[3,4-b]pyridine-6-carboxylic acid], for which, in assay [1], the “% Activation” value is 309.9% and the EC50 is 1300 nM. Also, in assay [2] (setting [3]), the “% Activation” value came out at 121.5% and the EC50 was 771 nM.
With `Cc1nn(-c2ccccc2)c2nc(C(=O)O)cc(N3CC4(CCCCC4)C3)c12` [compound 309, 4-(2-azaspiro[3.5]nonan-2-yl)-3-methyl-1-phenyl-1H-pyrazolo[3,4-b]pyridine-6-carboxylic acid], the “% Activation” value is listed as 237.3% in assay [1] and 67.305% in assay [2] (setting [4]). Also, the EC50 in assay [1] and in assay [2] (setting [5]) was 1330 nM each time.
Take `O=C(O)c1cc(N2CCC(N3CCC(C(F)(F)F)C3)CC2)c2c(C3CCC3)nn(-c3ccc(F)cc3)c2n1` (stereo not drawn) [compound 869]: in assay [1], the “% Activation” value came to 513.05% and the half-maximal effective concentration (EC50) is 37.7 nM. In assay [2] (setting [3]), the “% Activation” value was found to be 299.1% and the concentration giving a half-maximal response (EC50) came out at 113 nM.
Take `O=C(O)c1cc(N2CCC(CN3CC(F)C3)CC2)c2c(C3CCC3)nn(-c3ccccc3)c2n1` [compound 827, 3-cyclobutyl-4-{4-[(3-fluoroazetidin-1-yl)methyl]piperidin-1-yl}-1-phenyl-1H-pyrazolo[3,4-b]pyridine-6-carboxylic acid]: the “% Activation” value in assay [1] is listed as 453.25%; in assay [2] (setting [3]), 265.4%. In addition, the figures for the EC50 in assay [1] and in assay [2] (setting [3]) were 93 nM and 257 nM, respectively.
For `O=C(O)c1cc(N2CCC(CN3CC4(CCCOC4)C3)CC2)c2c(C3CCC3)nn(-c3ccccc3)c2n1` [compound 836, 3-cyclobutyl-4-{4-[(6-oxa-2-azaspiro[3.5]nonan-2-yl)methyl]piperidin-1-yl}-1-phenyl-1H-pyrazolo[3,4-b]pyridine-6-carboxylic acid], in that order: 325.3%, 137.3%, 409 nM and 486 nM.
For `O=C(O)c1cc(OCCC2CCOCC2)c2c(C3CCC3)nn(-c3ccccc3)c2n1` [compound 414, 3-cyclobutyl-4-[2-(oxan-4-yl)ethoxy]-1-phenyl-1H-pyrazolo[3,4-b]pyridine-6-carboxylic acid], in that order: 295.15%, 120.3%, 373 nM and 692 nM.
For `O=C(O)c1cc(OCC2CCC(F)(F)CC2)c2c(C3CCC3)nn(-c3ccccc3)c2n1` [compound 616, 3-cyclobutyl-4-[(4,4-difluorocyclohexyl)methoxy]-1-phenyl-1H-pyrazolo[3,4-b]pyridine-6-carboxylic acid], in that order: 389.95%, 144.2%, 83.3 nM and 116 nM.
As to `Cc1cccc(-n2nc(C(C)C)c3c(N4CCC5(CCOCC5)C4)cc(C(=O)O)nc32)c1` [compound 262, 1-(3-methylphenyl)-4-(8-oxa-2-azaspiro[4.5]decan-2-yl)-3-(propan-2-yl)-1H-pyrazolo[3,4-b]pyridine-6-carboxylic acid], the “% Activation” value in assay [1] worked out at 375.95%; in assay [2] (setting [4]), 164.4%. Also, the EC50 in assay [1] was determined as 853 nM; in assay [2] (setting [5]) it was 916 nM.
With `CC1(C)OC[C@@H](COc2cc(C(=O)O)nc3c2c(C2CCC2)nn3-c2ccccc2)O1` [compound 618, 3-cyclobutyl-4-{[(4R)-2,2-dimethyl-1,3-dioxolan-4-yl]methoxy}-1-phenyl-1H-pyrazolo[3,4-b]pyridine-6-carboxylic acid], in assay [1], the “% Activation” value came out at 315.25% and the half-maximal effective concentration (EC50) is 351 nM. For the same compound, in assay [2] (setting [3]), the “% Activation” value worked out at 105.9% and the concentration giving a half-maximal response (EC50) is 547 nM.
For `O=C(O)c1cc(N2CCC(O)CC2)c2c(C3CCC3)nn(-c3ccccc3)c2n1` [compound 501, 3-cyclobutyl-4-(4-hydroxypiperidin-1-yl)-1-phenyl-1H-pyrazolo[3,4-b]pyridine-6-carboxylic acid] the same measures were 367.65%, 353 nM, 152.7% and 629 nM.
As for `O=C(O)c1cc(N2CCC3(CCCC3)CC2)c2c(C3CCC3)nn(-c3ccccc3)c2n1` [compound 452, 4-(8-azaspiro[4.5]decan-8-yl)-3-cyclobutyl-1-phenyl-1H-pyrazolo[3,4-b]pyridine-6-carboxylic acid], in assay [1], the “% Activation” value is recorded as 282.3% and the EC50 came out at 1110 nM. In assay [2] (setting [3]), the “% Activation” value is 74.98% and the EC50 is 1110 nM.
For the compound `O=C(O)c1cc(OC(CN2CCOCC2)CN2CCOCC2)c2c(C3CCC3)nn(-c3ccccc3)c2n1` [compound 641, 4-{[1,3-bis(morpholin-4-yl)propan-2-yl]oxy}-3-cyclobutyl-1-phenyl-1H-pyrazolo[3,4-b]pyridine-6-carboxylic acid], in assay [1], the “% Activation” value is given as 239.75% and the EC50 was determined as 2270 nM. Further, in assay [2] (setting [3]), the “% Activation” value is listed as 65.07% and the EC50 was determined as 3330 nM.
On to `CC(C)c1nn(C2CCCCC2)c2nc(C(=O)O)cc(-c3ccc(N(C)C4CCOCC4)cc3)c12` [compound 254, 1-cyclohexyl-4-{4-[methyl(oxan-4-yl)amino]phenyl}-3-(propan-2-yl)-1H-pyrazolo[3,4-b]pyridine-6-carboxylic acid], for which the results for the “% Activation” value in assay [1] and in assay [2] (setting [4]) were 417.67% and 234.6%, respectively. Moreover, the concentration giving a half-maximal response (EC50) in assay [1] was determined as 333 nM; in assay [2] (setting [5]), 611 nM.
For `Cc1nn(-c2ccccc2)c2nc(C(=O)O)cc(N3CCC4(CCCO4)C3)c12` (stereo not drawn) [compound 311, 3-methyl-4-(1-oxa-7-azaspiro[4.4]nonan-7-yl)-1-phenyl-1H-pyrazolo[3,4-b]pyridine-6-carboxylic acid] the same measures were 195.5%, 53.7%, 2140 nM and 2510 nM.
For `Cc1nn(-c2ccccc2)c2nc(C(=O)O)cc(-c3ccc(N4CCC4)cc3)c12` [compound 135, 4-[4-(azetidin-1-yl)phenyl]-3-methyl-1-phenyl-1H-pyrazolo[3,4-b]pyridine-6-carboxylic acid], in that order: 355.55%, 165.1%, 1460 nM and 2200 nM.
Take `O=C(O)c1cc(N2CCC(CN3CC(OCC(F)F)C3)CC2)c2c(C3CCC3)nn(-c3ccccc3)c2n1` [compound 835, 3-cyclobutyl-4-(4-{[3-(2,2-difluoroethoxy)azetidin-1-yl]methyl}piperidin-1-yl)-1-phenyl-1H-pyrazolo[3,4-b]pyridine-6-carboxylic acid]: in assay [1], the “% Activation” value worked out at 466.9% and the 50% effective concentration (EC50) amounted to 67.6 nM. Moreover, in assay [2] (setting [3]), the “% Activation” value is given as 291.5% and the EC50 was 163 nM.
For `O=C1CC[C@H](COc2cc(C(=O)O)nc3c2c(C2CCC2)nn3-c2ccccc2)N1` [compound 617, 3-cyclobutyl-4-{[(2R)-5-oxopyrrolidin-2-yl]methoxy}-1-phenyl-1H-pyrazolo[3,4-b]pyridine-6-carboxylic acid], in that order: 127.3%, greater than 10000 nM, 7.139% and greater than 10000 nM.
In the case of `O=C(O)c1cc(N2CCC(N3CCCC3)CC2)c2c(C3CCC3)nn(-c3ccccc3)c2n1` [compound 443, 3-cyclobutyl-1-phenyl-4-[4-(pyrrolidin-1-yl)piperidin-1-yl]-1H-pyrazolo[3,4-b]pyridine-6-carboxylic acid], in assay [1], the “% Activation” value is recorded as 317.25% and the EC50 was 1470 nM. Besides, in assay [2] (setting [3]), the “% Activation” value was 146.9% and the EC50 worked out at 2300 nM.
Consider `CC(C)c1nn(C2CCCCC2)c2nc(C(=O)O)cc(-c3ccc(N4CCC(C#N)CC4)nc3)c12` [compound 180, 4-[6-(4-cyanopiperidin-1-yl)pyridin-3-yl]-1-cyclohexyl-3-(propan-2-yl)-1H-pyrazolo[3,4-b]pyridine-6-carboxylic acid], for which the “% Activation” value in assay [1] is on record as 524.85%; in assay [2] (setting [4]) it was 249.55%. Also, the EC50 in assay [1] is 687 nM; in assay [2] (setting [5]) it was 972 nM.
`CN1CCC(C2CCN(c3cc(C(=O)O)nc4c3c(C3CCC3)nn4-c3ccccc3)CC2)CC1` [compound 454, 3-cyclobutyl-4-(1′-methyl[4,4′-bipiperidin]-1-yl)-1-phenyl-1H-pyrazolo[3,4-b]pyridine-6-carboxylic acid]: in assay [1], the “% Activation” value worked out at 470.3% and the EC50 was found to be 636 nM. Besides, in assay [2] (setting [3]), the “% Activation” value is on record as 253.5% and the EC50 turned out to be 998 nM.
Consider `Cc1nn(-c2ccccc2)c2nc(C(=O)O)cc(O[C@H]3C[C@@H](N4CCS(=O)(=O)CC4)C3)c12` [compound 333, 4-{[cis-3-(1,1-dioxo-1λ^6,4-thiazinan-4-yl)cyclobutyl]oxy}-3-methyl-1-phenyl-1H-pyrazolo[3,4-b]pyridine-6-carboxylic acid], for which the “% Activation” value in assay [1] was found to be 150.85%; in assay [2] (setting [4]), 27.26%. For the same compound, the EC50 in assay [1] was 4110 nM; in assay [2] (setting [5]), 4170 nM.

What is called EC50 is the concentration needed to bring the measured effect to its halfway point.
